In PubChem BioAssay (NCI):
“And” between values parts separate entries of the source, which are not always exact repeats. Equal entries are not always repeated.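 Protocol summary: plate cells (96-well), add compound at 5 concentrations, incubate 48 h, interpolate endpoints linearly. GI50 marks 50% less growth. Definition used: TGI = concentration required for complete inhibition of growth.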

Experiments:
Experiment in all cases: NCI-60 cell line screen, 48 h
K-562 leukemia = test system: K-562 leukemia
ACHN renal = test system: ACHN renal
OVCAR-8 ovarian = test system: OVCAR-8 ovarian
NCI-H23 lung = test system: NCI-H23 lung
MOLT-4 leukemia = test system: MOLT-4 leukemia
SNB-19 CNS = test system: SNB-19 CNS
SK-OV-3 ovarian = test system: SK-OV-3 ovarian
OVCAR-5 ovarian = test system: OVCAR-5 ovarian
786-0 renal = test system: 786-0 renal
KM12 colon = test system: KM12 colon

Structure (SMILES) | GI50 (K-562 leukemia) | TGI (K-562 leukemia) | GI50 (ACHN renal) | TGI (ACHN renal) | GI50 (OVCAR-8 ovarian) | TGI (OVCAR-8 ovarian) | GI50 (NCI-H23 lung) | TGI (NCI-H23 lung) | GI50 (MOLT-4 leukemia) | TGI (MOLT-4 leukemia) | GI50 (SNB-19 CNS) | TGI (SNB-19 CNS) | GI50 (SK-OV-3 ovarian) | TGI (SK-OV-3 ovarian) | GI50 (OVCAR-5 ovarian) | TGI (OVCAR-5 ovarian) | GI50 (786-0 renal) | TGI (786-0 renal) | GI50 (KM12 colon) | TGI (KM12 colon)
O=C(NC1CCN(Cc2ccccc2)CC1)c1cc(-c2cccnc2)nc2ccc(Cl)cc12 | 3.43 µM | 76.8 µM | 2.36 µM | 6.54 µM | 10.4 µM | 35.4 µM | 18 µM | > 100 µM | 3.05 µM | 9.82 µM | 11.6 µM | 42.3 µM | 14.1 µM | 42.7 µM | 10.8 µM | > 100 µM | 4.63 µM | 17.7 µM | 13.7 µM | > 100 µM
Nc1cn(C2OC(CC(c3ccccc3)(c3ccccc3)c3ccccc3)C(O)C2O)c(=O)[nH]c1=O (stereo not given) | – | 54.4 µM | – | > 100 µM | – | 89.6 µM | – | 65.8 µM | – | 63.4 µM | – | > 100 µM | – | 98.2 µM | – | > 100 µM | – | 59.1 µM | – | > 100 µM
C[C@@H]1CC[C@H]2[C@@H](C)C(O)O[C@@H]3O[C@]4(C)CC[C@@H]1[C@]32OO4 (stereo not given in full) | 0.337 µM | 4.57 µM | 1.26 µM | 13 µM | 0.389 µM | 12.7 µM | 0.442 µM | 10.7 µM | 0.34 µM | 10.5 µM | 3.39 µM | > 72.6 µM | 11.8 µM | > 60.3 µM | 0.735 µM | 39.4 µM | 1.59 µM | > 48.8 µM | 0.213 µM | 8.78 µM
CCOC(=O)c1oc2c(OC)ccc3c2c1CCC3 | – | > 100 µM | – | > 100 µM | – | > 100 µM | – | > 100 µM | – | > 100 µM | – | > 100 µM | – | > 100 µM | – | > 100 µM | – | > 100 µM | – | > 100 µM
Cc1c2cnccc2c(C)c2c1c1cc(O)ccc1n2C(C)C | 1.02 µM | 5.6 µM | 0.285 µM | 1.77 µM | 0.972 µM | 6.18 µM | 0.721 µM | 3.83 µM | 0.289 µM | 1.26 µM | 1.76 µM | 10.9 µM | 0.709 µM | 5.55 µM | 2.42 µM | 9.46 µM | 1.7 µM | 4.53 µM | 0.57 µM | 9.87 µM
NCCOc1ccc(/C(=C(/Cl)c2ccccc2)c2ccccc2)cc1 | – | 14.8 µM | – | 27.2 µM | – | 29.6 µM | – | 30.7 µM | – | 14.7 µM | – | 28.9 µM | – | 31.7 µM | – | 30.8 µM | – | 20.7 µM | – | 16.7 µM
N#CCCN(CCC#N)c1ccc(/C=C(/NC(=O)c2cc([N+](=O)[O-])ccc2Cl)C(=O)N=[N+]=[N-])cc1 | – | > 100 µM | – | > 100 µM | – | > 100 µM | – | > 100 µM | – | > 100 µM | – | > 100 µM | – | > 100 µM | – | > 100 µM | – | > 100 µM | – | > 100 µM
O/N=C1/CCC/C1=C\c1ccccc1 | – | > 100 µM | – | > 100 µM | – | > 100 µM | – | > 100 µM | – | > 100 µM | – | > 100 µM | – | > 100 µM | – | > 100 µM | – | > 100 µM | – | > 100 µM
CCCCCCCCCCC(=O)CCCCCCC(=O)O | – | 26.9 µM | – | 56.6 µM | – | 33.7 µM | – | 98.4 µM | – | 36.8 µM | – | > 100 µM | – | > 100 µM | – | 51.3 µM | – | 39.6 µM | – | 29.9 µM
CN(C)c1ccc(/C=C/C(=O)c2ccc(Nc3nc(Nc4ccc(F)cc4)nc(Nc4ccc(F)cc4)n3)cc2)cc1 | 12.7 µM | > 100 µM | 27.4 µM | > 100 µM | 11.6 µM | 40.3 µM | 19.6 µM | 68.6 µM | 6.48 µM | 63 µM | 29.6 µM | > 100 µM | 14.7 µM | 55.7 µM | 34.4 µM | > 100 µM | 14.9 µM | 45.8 µM | 19 µM | 75.2 µM
COc1ccc(-c2nn(-c3cccc(Cl)c3)cc2/C=C2\NC(=S)N(c3ccc(Cl)cc3)C2=O)cc1 | 3.12 µM | 7.92 µM | 3.72 µM | > 25 µM | 2.62 µM | 7.02 µM | 3.78 µM | 9.23 µM | 4.47 µM | 10.7 µM | 6.54 µM | > 25 µM | 3.77 µM | 8.22 µM | 6.31 µM | > 25 µM | 5.57 µM | > 25 µM | 10.1 µM | > 25 µM
Cc1nnc(C[C@@H]2C=C(c3ccc(Cl)cc3)c3ccccc3-n3c(C)nnc32)o1 | 0.809 µM | > 100 µM | 1.25 µM | > 100 µM | 2.94 µM | > 67.4 µM | 1.51 µM | 96.9 µM | 8.35 µM | > 100 µM | 5.53 µM | > 100 µM | 0.262 µM | 12 µM | 4.7 µM | > 100 µM | 1.04 µM | 38.7 µM | 6.25 µM | > 100 µM
Cc1cc(=O)oc2c(C3=NN(C=O)C(c4ccccc4)C3)c(O)ccc12 (stereo not given) | – | > 100 µM | – | > 42.8 µM | – | > 100 µM | – | > 100 µM | – | > 100 µM | – | > 91.2 µM | – | 48.2 µM | – | > 100 µM | – | 81.4 µM | – | > 100 µM
CC(C)N(C(=O)C12C3C4C1C1C2C3C41C(=O)C(C)(C)C)C(C)C (stereo not given) | – | > 100 µM | – | > 100 µM | – | > 100 µM | – | > 100 µM | – | > 100 µM | – | > 100 µM | – | > 100 µM | – | > 100 µM | – | > 100 µM | – | > 100 µM
CC(=O)N[C@H](C)[C@@H](O)[C@@H](C)[C@@H]1OC(=O)/C=C/C=C(C)\C=C\[C@]2(C)C[C@@H](NS(C)(=O)=O)C=C[C@@H]2/C=C(C)/C=C/[C@H]1C | 0.00684 µM and 0.0218 µM | > 43.5 µM | 0.0125 µM | > 43.5 µM | 0.017 µM | > 43.5 µM | 0.0493 µM | > 43.5 µM | > 43.5 µM | > 43.5 µM | 0.039 µM and 0.0228 µM | > 43.5 µM | 0.00446 µM and 0.00599 µM | 0.0397 µM | > 43.5 µM | > 43.5 µM | 0.0469 µM and 0.0185 µM | > 43.5 µM | 0.125 µM and 0.0277 µM | > 43.5 µM
